*1 amine or outer side, *2 acyl side, *3 side chain or, on linkers, in order; H or OH if unused. Where a SMILES comes first, the peptide text is derived from it. Side-chain parts run from the residue outwards. [ ]: non-standard residue; d: D form. The star is where a group is joined. C20 diacid = O=C(O)CCCCCCCCCCCCCCCCCCC(=O)*; αMePhe(2-F) = C[C@](N)(Cc1ccccc1F)C(=O)O; γGlu = O=C(O)[C@H](CCC(=O)[*:2])N[*:1]; 4Pal = N[C@@H](Cc1ccncc1)C(=O)O; αMeL = CC(C)C[C@](C)(N)C(=O)O; Orn = NCCC[C@H](N)C(=O)O; AEEA = NCCOCCOCC(=O)O; Aib = CC(C)(N)C(=O)O
Tests used:
[1] = target: T1, human glucose-dependent insulinotropic peptide receptor (GIPR) (Homo sapiens, UniProt P48546); assay: cAMP functional assay (HTRF) in HEK293 cells in presence of 0.1% casein; format: cell-based; details: HEK293 cells expressing human GIPR, geometric mean, read-out: hGIPR cAMP Rel EC50 nM (SEM, n)
T1 construct: expressed in transfected cells; host or cells: HEK293
T1 sequence (P48546 22-466): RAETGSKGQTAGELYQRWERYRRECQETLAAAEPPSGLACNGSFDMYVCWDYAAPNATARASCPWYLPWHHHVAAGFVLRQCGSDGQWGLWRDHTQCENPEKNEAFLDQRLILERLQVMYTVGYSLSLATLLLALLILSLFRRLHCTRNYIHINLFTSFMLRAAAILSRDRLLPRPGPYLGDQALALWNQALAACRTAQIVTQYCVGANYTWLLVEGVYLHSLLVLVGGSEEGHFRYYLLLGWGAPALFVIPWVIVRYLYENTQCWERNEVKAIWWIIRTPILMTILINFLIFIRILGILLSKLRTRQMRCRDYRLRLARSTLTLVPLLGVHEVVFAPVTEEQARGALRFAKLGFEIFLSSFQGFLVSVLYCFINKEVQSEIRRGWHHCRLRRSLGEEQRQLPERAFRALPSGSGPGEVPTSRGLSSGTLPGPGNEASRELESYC

[2] = target: T2, human glucagon receptor (GcgR) (Homo sapiens, UniProt P47871); assay: as above; format: cell-based; details: HEK293 cells expressing human GcgR, geometric mean, read-out: hGcgR cAMP Rel EC50 nM (SEM, n)
T2 construct: expressed in transfected cells; host or cells: HEK293
T2 sequence (P47871 26-477): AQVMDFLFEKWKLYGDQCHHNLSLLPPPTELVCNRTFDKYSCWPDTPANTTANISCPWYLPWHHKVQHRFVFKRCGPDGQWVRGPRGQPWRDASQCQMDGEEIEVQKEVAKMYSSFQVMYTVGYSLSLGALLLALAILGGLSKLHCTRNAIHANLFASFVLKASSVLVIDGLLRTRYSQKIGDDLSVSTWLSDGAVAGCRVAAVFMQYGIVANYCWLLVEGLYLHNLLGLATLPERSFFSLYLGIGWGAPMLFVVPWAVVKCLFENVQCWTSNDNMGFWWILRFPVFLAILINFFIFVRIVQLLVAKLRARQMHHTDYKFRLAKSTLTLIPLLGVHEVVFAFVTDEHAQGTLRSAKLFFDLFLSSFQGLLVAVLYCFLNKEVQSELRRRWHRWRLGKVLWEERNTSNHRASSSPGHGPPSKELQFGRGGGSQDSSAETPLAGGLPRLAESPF

SMILES | EC50 [1] [nM] | EC50 [2] [nM]
CC[C@H](C)[C@H](NC(=O)[C@H](CCCN)NC(=O)[C@H](CC(=O)O)NC(=O)[C@H](CC(C)C)NC(=O)[C@](C)(CC(C)C)NC(=O)[C@@H](NC(=O)[C@H](CO)NC(=O)[C@H](Cc1ccc(O)cc1)NC(=O)[C@H](CC(=O)O)NC(=O)[C@H](CO)NC(=O)[C@@H](NC(=O)[C@H](Cc1ccccc1)NC(=O)[C@@H](NC(=O)CNC(=O)[C@H](CCC(=O)O)NC(=O)C(C)(C)NC(=O)[C@@H](N)Cc1ccc(O)cc1)[C@@H](C)O)[C@@H](C)CC)[C@@H](C)CC)C(=O)N[C@@H](CCCNC(=N)N)C(=O)N[C@@H](CCC(N)=O)C(=O)NC(C)(C)C(=O)N[C@@H](CC(=O)O)C(=O)N[C@@H](Cc1ccccc1)C(=O)N[C@H](C(=O)N[C@@H](CCC(=O)O)C(=O)N[C@@H](Cc1ccc(O)cc1)C(=O)N[C@@H](CCCCNC(=O)COCCOCCNC(=O)COCCOCCNC(=O)CC[C@H](NC(=O)CCCCCCCCCCCCCCCCCCC(=O)O)C(=O)O)C(=O)N[C@@H](CC(C)C)C(=O)N[C@@H](CCC(=O)O)C(=O)NCC(=O)NCC(=O)N1CCC[C@H]1C(=O)N[C@@H](CO)C(=O)N[C@@H](CO)C(=O)NCC(=O)N[C@@H](C)C(=O)N1CCC[C@H]1C(=O)N1CCC[C@H]1C(=O)N1CCC[C@H]1C(=O)N[C@@H](CO)C(N)=O)C(C)C [Example 116] (H-Y[Aib]EGTFISDYSI[αMeL]LD[Orn]IRQ[Aib]DFVEYK([AEEA-AEEA-γGlu-C20 diacid])LEGGPSSGAPPPS-NH2) | 0.028 | > 5000
CC[C@H](C)[C@H](NC(=O)[C@H](CCCCN)NC(=O)[C@H](CC(=O)O)NC(=O)[C@H](CC(C)C)NC(=O)[C@](C)(CC(C)C)NC(=O)[C@@H](NC(=O)[C@H](CO)NC(=O)[C@H](Cc1ccc(O)cc1)NC(=O)[C@H](CC(=O)O)NC(=O)[C@H](CO)NC(=O)[C@@H](NC(=O)[C@H](Cc1ccccc1)NC(=O)[C@@H](NC(=O)CNC(=O)[C@H](CCC(=O)O)NC(=O)C(C)(C)NC(=O)[C@@H](N)Cc1ccc(O)cc1)[C@@H](C)O)[C@@H](C)CC)[C@@H](C)CC)C(=O)N[C@@H](Cc1c[nH]cn1)C(=O)N[C@@H](CCC(N)=O)C(=O)NC(C)(C)C(=O)N[C@@H](CC(=O)O)C(=O)N[C@@H](Cc1ccccc1)C(=O)N[C@H](C(=O)N[C@@H](CCC(=O)O)C(=O)N[C@@H](Cc1ccc(O)cc1)C(=O)N[C@@H](CCCCNC(=O)COCCOCCNC(=O)COCCOCCNC(=O)CC[C@H](NC(=O)CCCCCCCCCCCCCCCCCCC(=O)O)C(=O)O)C(=O)N[C@@H](CC(C)C)C(=O)N[C@@H](CCC(=O)O)C(=O)N[C@@H](C)C(=O)NCC(=O)N1CCC[C@H]1C(=O)N[C@@H](CO)C(=O)N[C@@H](CO)C(=O)NCC(=O)N[C@@H](C)C(=O)N1CCC[C@H]1C(=O)N1CCC[C@H]1C(=O)N1CCC[C@H]1C(=O)N[C@@H](CO)C(N)=O)C(C)C [Example 117] (H-Y[Aib]EGTFISDYSI[αMeL]LDKIHQ[Aib]DFVEYK([AEEA-AEEA-γGlu-C20 diacid])LEAGPSSGAPPPS-NH2) | 0.0617 | > 5000
CC[C@H](C)[C@H](NC(=O)[C@H](CO)NC(=O)[C@H](Cc1ccc(O)cc1)NC(=O)[C@H](CC(=O)O)NC(=O)[C@H](CO)NC(=O)[C@@H](NC(=O)[C@](C)(Cc1ccccc1F)NC(=O)[C@@H](NC(=O)CNC(=O)[C@H](CCC(=O)O)NC(=O)C(C)(C)NC(=O)[C@@H](N)Cc1ccc(O)cc1)[C@@H](C)O)[C@@H](C)CC)C(=O)N[C@@H](CC(C)C)C(=O)N[C@@H](CC(C)C)C(=O)N[C@@H](CC(=O)O)C(=O)N[C@@H](CCCCN)C(=O)N[C@H](C(=O)N[C@@H](Cc1c[nH]cn1)C(=O)N[C@@H](CCC(N)=O)C(=O)NC(C)(C)C(=O)N[C@@H](CC(=O)O)C(=O)N[C@@H](Cc1ccccc1)C(=O)N[C@H](C(=O)N[C@@H](CCC(=O)O)C(=O)N[C@@H](Cc1ccncc1)C(=O)N[C@@H](CCCCNC(=O)COCCOCCNC(=O)COCCOCCNC(=O)CC[C@H](NC(=O)CCCCCCCCCCCCCCCCCCC(=O)O)C(=O)O)C(=O)N[C@@H](CC(C)C)C(=O)N[C@@H](CCC(=O)O)C(=O)NCC(=O)NCC(=O)N1CCC[C@H]1C(=O)N[C@@H](CO)C(=O)N[C@@H](CO)C(=O)NCC(=O)N[C@@H](C)C(=O)N1CCC[C@H]1C(=O)N1CCC[C@H]1C(=O)N1CCC[C@H]1C(=O)N[C@@H](CO)C(N)=O)C(C)C)[C@@H](C)CC [Example 119] (H-Y[Aib]EGT[αMePhe(2-F)]ISDYSILLDKIHQ[Aib]DFVE[4Pal]K([AEEA-AEEA-γGlu-C20 diacid])LEGGPSSGAPPPS-NH2) | 0.022 | > 5000
CC[C@H](C)[C@H](NC(=O)[C@H](CO)NC(=O)[C@H](Cc1ccc(O)cc1)NC(=O)[C@H](CC(=O)O)NC(=O)[C@H](CO)NC(=O)[C@@H](NC(=O)[C@](C)(Cc1ccccc1F)NC(=O)[C@@H](NC(=O)CNC(=O)[C@H](CCC(=O)O)NC(=O)C(C)(C)NC(=O)[C@@H](N)Cc1ccc(O)cc1)[C@@H](C)O)[C@@H](C)CC)C(=O)N[C@@H](CC(C)C)C(=O)N[C@@H](CC(C)C)C(=O)N[C@@H](CC(=O)O)C(=O)N[C@@H](CCCCN)C(=O)N[C@H](C(=O)N[C@@H](Cc1c[nH]cn1)C(=O)N[C@@H](CCC(N)=O)C(=O)NC(C)(C)C(=O)N[C@@H](CC(=O)O)C(=O)N[C@@H](Cc1ccccc1)C(=O)N[C@H](C(=O)N[C@@H](CCC(=O)O)C(=O)N[C@@H](Cc1ccncc1)C(=O)N[C@@H](CCCCNC(=O)COCCOCCNC(=O)COCCOCCNC(=O)CC[C@H](NC(=O)CCCCCCCCCCCCCCCCCCC(=O)O)C(=O)O)C(=O)N[C@@H](CC(C)C)C(=O)N[C@@H](CCC(=O)O)C(=O)N[C@@H](C)C(=O)NCC(=O)N1CCC[C@H]1C(=O)N[C@@H](CO)C(=O)N[C@@H](CO)C(=O)NCC(=O)N[C@@H](C)C(=O)N1CCC[C@H]1C(=O)N1CCC[C@H]1C(=O)N1CCC[C@H]1C(=O)N[C@@H](CO)C(N)=O)C(C)C)[C@@H](C)CC [Example 120] (H-Y[Aib]EGT[αMePhe(2-F)]ISDYSILLDKIHQ[Aib]DFVE[4Pal]K([AEEA-AEEA-γGlu-C20 diacid])LEAGPSSGAPPPS-NH2) | 0.0228 | > 5000
CC[C@H](C)[C@H](NC(=O)[C@H](CO)NC(=O)[C@H](Cc1ccc(O)cc1)NC(=O)[C@H](CC(=O)O)NC(=O)[C@H](CO)NC(=O)[C@@H](NC(=O)[C@](C)(Cc1ccccc1F)NC(=O)[C@@H](NC(=O)CNC(=O)[C@H](CCC(=O)O)NC(=O)C(C)(C)NC(=O)[C@@H](N)Cc1ccc(O)cc1)[C@@H](C)O)[C@@H](C)CC)C(=O)N[C@@H](CC(C)C)C(=O)N[C@@H](CC(C)C)C(=O)N[C@@H](CC(=O)O)C(=O)N[C@@H](CCCCN)C(=O)N[C@H](C(=O)N[C@@H](Cc1c[nH]cn1)C(=O)N[C@@H](CCC(N)=O)C(=O)NC(C)(C)C(=O)N[C@@H](CC(=O)O)C(=O)N[C@@H](Cc1ccccc1)C(=O)N[C@H](C(=O)N[C@@H](CCC(=O)O)C(=O)N[C@@H](Cc1ccncc1)C(=O)N[C@@H](CCCCNC(=O)COCCOCCNC(=O)COCCOCCNC(=O)CC[C@H](NC(=O)CCCCCCCCCCCCCCCCCCC(=O)O)C(=O)O)C(=O)N[C@@H](CC(C)C)C(=O)N[C@@H](CCC(=O)O)C(=O)N[C@@H](CCC(N)=O)C(=O)NCC(=O)N1CCC[C@H]1C(=O)N[C@@H](CO)C(=O)N[C@@H](CO)C(=O)NCC(=O)N[C@@H](C)C(=O)N1CCC[C@H]1C(=O)N1CCC[C@H]1C(=O)N1CCC[C@H]1C(=O)N[C@@H](CO)C(N)=O)C(C)C)[C@@H](C)CC [Example 121] (H-Y[Aib]EGT[αMePhe(2-F)]ISDYSILLDKIHQ[Aib]DFVE[4Pal]K([AEEA-AEEA-γGlu-C20 diacid])LEQGPSSGAPPPS-NH2) | 0.0196 | > 5000
CC[C@H](C)[C@H](NC(=O)[C@H](CCCN)NC(=O)[C@H](CC(=O)O)NC(=O)[C@H](CC(C)C)NC(=O)[C@](C)(CC(C)C)NC(=O)[C@@H](NC(=O)[C@H](CO)NC(=O)[C@H](Cc1ccc(O)cc1)NC(=O)[C@H](CC(=O)O)NC(=O)[C@H](CO)NC(=O)[C@@H](NC(=O)[C@H](Cc1ccccc1)NC(=O)[C@@H](NC(=O)CNC(=O)[C@H](CCC(=O)O)NC(=O)C(C)(C)NC(=O)[C@@H](N)Cc1ccc(O)cc1)[C@@H](C)O)[C@@H](C)CC)[C@@H](C)CC)C(=O)N[C@@H](Cc1c[nH]cn1)C(=O)N[C@@H](CCC(N)=O)C(=O)NC(C)(C)C(=O)N[C@@H](CCC(=O)O)C(=O)N[C@@H](Cc1ccccc1)C(=O)N[C@H](C(=O)N[C@@H](CCC(=O)O)C(=O)N[C@@H](Cc1ccncc1)C(=O)N[C@@H](CCCCNC(=O)COCCOCCNC(=O)COCCOCCNC(=O)CC[C@H](NC(=O)CCCCCCCCCCCCCCCCCCC(=O)O)C(=O)O)C(=O)N[C@@H](CC(C)C)C(=O)N[C@@H](CCC(=O)O)C(=O)N[C@@H](C)C(=O)NCC(=O)N1CCC[C@H]1C(=O)N[C@@H](CO)C(=O)N[C@@H](CO)C(=O)NCC(=O)N[C@@H](C)C(=O)N1CCC[C@H]1C(=O)N1CCC[C@H]1C(=O)N1CCC[C@H]1C(=O)N[C@@H](CO)C(N)=O)C(C)C [Example 122] (H-Y[Aib]EGTFISDYSI[αMeL]LD[Orn]IHQ[Aib]EFVE[4Pal]K([AEEA-AEEA-γGlu-C20 diacid])LEAGPSSGAPPPS-NH2) | 0.01 | > 5000

Reference: patent publication US12723063B2, “GIPR-agonist compounds” (Eli Lilly and Company, priority 2019, dated 2026)
